Data taken from patent US20220401390A1, “TREATMENTS OF DIABETIC MACULAR EDEMA AND IMPAIRED VISUAL ACUITY” (KALVISTA PHARMACEUTICALS LIMITED, priority 2019, published 2022).

System: subjects with ciDME who have had prior anti-VEGF treatment
Experiment: Study 2: sham-controlled monthly intravitreal injections, BCVA (ETDRS) efficacy
Format: in vivo, human
Design: BCVA (letters): any loss from baseline, Diff. v. sham / BCVA: ≥5 letter loss from baseline, Diff. v. sham / BCVA: ≥10 letter loss from baseline, Diff. v. sham / BCVA: ≥15 letter loss from baseline, Diff. v. sham: unit not given here
Details: for BCVA: ≥10 letter loss from baseline, Diff. v. sham / BCVA: ≥15 letter loss from baseline, Diff. v. sham / BCVA (letters): any loss from baseline, Diff. v. sham / BCVA: ≥5 letter loss from baseline, Diff. v. sham: week 16
Description: To investigate monthly dosing of intravitreal (IVT) injection of the compound of Formula A in subjects with ciDME who have had prior anti-VEGF treatment. In particular, to evaluate any effect on the efficacy in the treatment, prevention, or prevention of worsening of ciDME in subjects who have had prior anti-VEGF treatment.
This study was a randomized, sham-controlled, double-masked, 3-arm study into efficacy, safety and tolerability of monthly intravitreal injections of the compound of Formula A as a monotherapy in adult subjects with ciDME. The subjects had all had prior anti-VEGF treatment.
129 adult subjects were chosen using the following inclusion criteria: • 1. Male or female adult subjects 18 years of age and older. • 2. Confirmed diagnosis of Type I or Type II diabetes mellitus (DM). Any of the following were sufficient: • a. Current regular use of insulin for the treatment of diabetes • b. Current regular use of oral anti-hyperglycemia agents for the treatment of diabetes • c. Documented diabetes by American Diabetes Association and/or World Health Organization (VVHO) criteria. • 3. Best Corrected Visual Acuity (BCVA), using Standard Early Treatment Diabetic Retinopathy Study (ETDRS) chart, of ≥19 letters (˜20/400) and ≤73 letters (˜20/40) in the study eye and ≥34 letters (˜20/200 or better) in the fellow eye at Screening and Day 1. • 4. Presence of ciDME in the study eye defined as Heidelberg Spectralis Optical Coherence Tomography (SD-OCT) CST ≥305 μm in women and ≥320 μm in men in the study eye (as assessed at Screening by the Investigator and Central Image Reading Center (CIRC) and on Day 1 by the Investigator). • 5. Subjects' first anti-VEGF injection in the study eye occurred 36 months prior to Day 1. • 6. Subjects received at least 3 anti-VEGF injections in the study eye within a 6-month period within the 36 months prior to Day 1. • 7. Subject's' last anti-VEGF injection in the study eye was 8 weeks prior to Day 1. • 8. Subjects, who in the view of the Investigator, were able to defer treatment in the study eye for at least 6 months following Day 1. • 9. […] Provide signed informed consent and were willing and capable of complying with clinic visits and study procedures.
The 129 eligible subjects were randomized approximately 1:1:1 into three arms: • 1. Arm 1, N=44: • Received injections of 3 μg/eye (100 μL injection volume at a concentration of 30 μg/mL) of the compound of formula A; • 2. Arm 2, N=41: • Received injections of 6 μg/eye (100 μL injection volume at a concentration of 60 μg/mL) of the compound of formula A; and • 3. Arm 3, N=44: • Received a sham procedure; during a 12-week, double-masked treatment period (a total of 4 doses given at approximately monthly intervals).
Subjects visited the study clinic on Day 1 and Weeks 4, 8, and 12 during the Treatment Phase for study drug administration or sham procedure, safety, and ophthalmic assessments.
The ophthalmic assessments were carried out in approximately the following order at the subjects' visits to the study clinic on Day 1, and Weeks 4, 8 and 12: • BCVA (must be performed prior to all other ophthalmic procedures) • Slit lamp biomicroscopy • Pre-Injection IOP/IOP at visits with no study drug administration (must be done prior to dilation) • Dilated indirect ophthalmoscopy • Fundus photography • SD-OCT • Intravitreal injection • Post-Injection IOP
All subjects visited the clinic at Weeks 16, 20, and 24 after the last study drug administration or sham procedure for safety and ophthalmic assessments. The visit window for Weeks 16, 20, and 24 is ±7 days.
The assessment measured change from baseline in BCVA letter count in the study eye at Week 16. Change from baseline in BCVA letter count is calculated as Week 16 BCVA letter count minus Day 1 BCVA letter count such that a negative difference indicates a worsening in vision. […]

## CCOc1ccc(C[C@@H](NC(=O)c2ccccc2)C(=O)N[C@@H](Cc2ccccc2)C(=O)NCc2ccc(CN)cc2)cc1 [compound of Formula A, N—[(R)-1-[(S)-1-(4-Aminomethyl-benzylcarbamoyl)-2-phenyl-ethylcarbamoyl]-2-(4-ethoxy-phenyl)-ethyl]-benzamide]
3 μg, 4 weeks, positive value is improvement
  BCVA improvement (letters), change versus sham, mean: 0.6 letters
3 μg, 8 weeks, positive value is improvement
  BCVA improvement (letters), change versus sham, mean: 1.2 letters
3 μg, 12 weeks, positive value is improvement
  BCVA improvement (letters), change versus sham, mean: 3.8 letters
3 μg, 16 weeks, positive value is improvement
  BCVA improvement (letters), change versus sham, mean: 1.5 letters
3 μg, 20 weeks, positive value is improvement
  BCVA improvement (letters), change versus sham, mean: −1.2 letters
3 μg, 24 weeks, positive value is improvement
  BCVA improvement (letters), change versus sham, mean: −0.7 letters
3 μg, week 16, n = 44
  BCVA (letters): any loss from baseline, (%): (50.0) %
  BCVA: ≥5 letter loss from baseline, (%): (25.0) %
  BCVA: ≥10 letter loss from baseline, (%): (9.1) %
  BCVA: ≥15 letter loss from baseline, (%): (4.5) %
3 μg, p-value 0.228
  BCVA: ≥10 letter loss from baseline, Diff. v. sham: −11.4
3 μg, p-value 0.4336
  BCVA: ≥15 letter loss from baseline, Diff. v. sham: −6.8
3 μg, p-value 0.6695
  BCVA (letters): any loss from baseline, Diff. v. sham: −4.5
3 μg, p-value 0.8083
  BCVA: ≥5 letter loss from baseline, Diff. v. sham: −2.3
6 μg doses, through to the 24 week time period
  Improvement in BCVA (letters) score compared to sham after the treatment period (in words): maintained
6 μg, all subjects, 4 weeks, positive value is improvement
  BCVA improvement (letters), change versus sham, mean: 0.9 letters
6 μg, all subjects, 8 weeks, positive value is improvement
  BCVA improvement (letters), change versus sham, mean: 1.1 letters
6 μg, all subjects, 12 weeks, positive value is improvement
  BCVA improvement (letters), change versus sham, mean: 2.9 letters
6 μg, all subjects, 16 weeks, positive value is improvement
  BCVA improvement (letters), change versus sham, mean: 2.6 letters
6 μg, all subjects, 20 weeks, positive value is improvement
  BCVA improvement (letters), change versus sham, mean: 2.0 letters
6 μg, all subjects, 24 weeks, positive value is improvement
  BCVA improvement (letters), change versus sham, mean: 2.1 letters
6 μg, early stage subjects (baseline BCVA >55 letters), 4 weeks
  BCVA improvement (letters), change versus sham, mean: 2.3 letters
6 μg, early stage subjects (baseline BCVA >55 letters), 8 weeks
  BCVA improvement (letters), change versus sham, mean: 1.8 letters
6 μg, early stage subjects (baseline BCVA >55 letters), 12 weeks
  BCVA improvement (letters), change versus sham, mean: 4.7 letters
6 μg, early stage subjects (baseline BCVA >55 letters), 16 weeks
  BCVA improvement (letters), change versus sham, mean: 4.9 letters
6 μg, early stage subjects (baseline BCVA >55 letters), 20 weeks
  BCVA improvement (letters), change versus sham, mean: 3.5 letters
6 μg, early stage subjects (baseline BCVA >55 letters), 24 weeks
  BCVA improvement (letters), change versus sham, mean: 2.9 letters
6 μg, week 16, n = 41
  BCVA (letters): any loss from baseline, (%): (32.5) %
  BCVA: ≥5 letter loss from baseline, (%): (20.0) %
  BCVA: ≥10 letter loss from baseline, (%): (5.0) %
  BCVA: ≥15 letter loss from baseline, (%): (0) %
6 μg, p-value 0.0421
  BCVA (letters): any loss from baseline, Diff. v. sham: −22.0
6 μg, p-value 0.0516
  BCVA: ≥10 letter loss from baseline, Diff. v. sham: −15.5
6 μg, p-value 0.0565
  BCVA: ≥15 letter loss from baseline, Diff. v. sham: −11.4
6 μg, p-value 0.4344
  BCVA: ≥5 letter loss from baseline, Diff. v. sham: −7.3
Baseline BCVA greater than 55 letters, every measurement taken
  Average improvement in BCVA score of early stage patients versus overall population (in words): consistently better average improvement in BCVA score than the overall average population score
Subjects that had previously had anti-VEGF treatment
  Progression of DME or impaired visual acuity (in words): slowing of the progression
